Consider 13 molecules from US20160115186A1, “PHOSPHORIC ACID/PHOSPHONIC ACID DERIVATIVES AND MEDICINAL USES THEREOF” (priority 2013, published 2016).

A word on the IC50: it is the concentration that gives 50% inhibition. As usually defined, the CC50 is the concentration at which the toxic effect on the cells reaches its halfway point.

Read-outs that look alike come from different tables or passages of the source.

One series has as its system HBV. Kind of series: microbe, parasite or virus in culture. It is filed as cell-based. The procedure:
At day 10 post-dosing, 100 μl supernate was taken and the content of HBV DNA was measured by the method of Quantitative PCR to calculate IC50 value.

The next series in a line: in vitro. As to conditions: human; Hep G 2.2.15 cells, MTT, day 3 post-dosing. It is filed as cell-based. The procedure:
Hep G 2.2.15 cells were inoculated in a 96-well plate (with cell number being 5.5×10^4) to continually cultivate for 3 days, new culture solutions containing different concentrations of drugs were added, and 3 wells were provided in parallel; at day 3 post-dosing, MTT was added until 7.5 mg/ml, and continued to cultivate for 2 hours, the supernate was discarded, isopropanol containing 10% […] was added, 120 μl/well, and 0.4 μl/well was further added.

For series [1], the system named is liver damage in mice caused by CCl4. It is filed as in vivo, Kunmin mice. The following applies: serum, CCl4 model, 0.2 mmol oral twice, 24 hours after second administration. The procedure:
Kunmin mice (20 g) were grouped randomly (8/group). 0.2 mmol of a compound to be tested was orally administered; after 1 hour post-dosing, a 0.1% peanut oil solution of CCl4 was subcutaneously injected (10 mL/kg), to prepare a liver damage model; the normal saline was injected as a normal control group. After modeling for 12 hours, 0.2 mmol of the compound to be tested was orally administrated again. After 24 hours from the second administration, blood samples were collected to take serum specimen so as to determine ALT, AST.

In series [2] the test system is liver damage in mice caused by D-aminogalactose. It is filed as in vivo, Kunmin mice. As to conditions: serum, D-aminogalactose 750 mg/kg model, 0.2 mmol oral twice, 24 hours after second administration. The procedure: Kunmin mice (20 g) were grouped randomly (8/group). 0.2 mmol of a compound to be tested was orally administered; after 2 hours post-dosing, D-aminogalactose was intraperitoneally injected at a dose of 750 mg/kg to prepare a liver damage model, and the normal saline was subcutaneously injected as a normal control group. After modeling for 12 hours, 0.2 mmol of the compound to be tested was orally administrated again. After 24 hours from the second administration, blood samples were collected to take serum specimen so as to determine ALT, AST.

The test system of the next series is DHBV. Put plainly: animal or person. The class given is in vivo, sheldrakes. As to conditions: for inhibition in vivo at 10 mg/kg / inhibition in vivo at 0.5 mg/kg / inhibition in vivo at 20 mg/kg / inhibition in vivo at 1 mg/kg / inhibition in vivo at 25 mg/kg: Duck hepatitis B virus, po, 336 h; for inhibition in vivo at 10 mg/kg: 10 mg/kg intragastric once a day for 14 days; for inhibition in vivo at 0.5 mg/kg: 0.5 mg/kg intragastric once a day for 14 days; for inhibition in vivo at 1 mg/kg: 1.0 mg/kg intragastric once a day for 14 days. The procedure:
The sheldrakes infected by vertical transmission and being positive in DHBV DNA detection were grouped randomly, 5/group. Water and different doses of the compound to be tested were intragastrically administrated, respectively, once a day, for 14 days. Venous blood samples were collected pre-dosing, at day 14 of dosing and at day 7 after drug withdrawal, the serum DHBV DNA content was measured using external standard TaqMan real-time fluorescence PCR method, and the inhibition ratio was calculated, as compared to the solvent group.

The nature of series [3]: Evaluation of liver targeting property (active drug in liver and blood, HPLC-MS/MS). The class given is in vivo, Balb/C mice. As to conditions: intragastric, dose equimolar to fosfomycin 200 mg/kg, active drug (free phosphonic or phosphoric acid). The text has this: Instrument: Finnigan Co. USA, TSQ Quantum-type liquid chromatography-mass spectrometry (LC/MS/MS), consisting of Finnigan Surveyor LC pump. Surveyor AS automatic sampler, electrospray ionization source (ESI) and triple tandem mass spectrometer. The control software is X calibur 1.4, Lcquan 2.0 data processing system is used for mass spectrometry data analysis. The chromatography column is Discovery ODS column (250 mm×4.6 mm, 5 μm), C18 guard column (4 mm×3.0 mm), the mobile phase is methanol-water-formic acid (10-30:90-70:0.5, V/V/V), the flow rate is 0.7 ml/min; the sample amount is 20 μL; and the column temperature is room temperature.

Where [4] appears, read: Hepatitis B virus, HepG2.2.15, 240 h, Hep G 2.2.15 cells, HBV DNA in supernate at day 10 post-dosing, read-out: IC50.
[5] abbreviates: serum DHBV DNA, read-out: Inhibition ratio (%) Day 14 of dosing.
Setting [6] is: serum DHBV DNA, read-out: Inhibition ratio (%) day 7 after drug withdrawal.
[7] abbreviates: Hepatitis B virus, HepG2.2.15, 240 h.
[8] abbreviates: serum DHBV DNA, 25 mg/kg intragastric once a day for 14 days.
[9] abbreviates: read-out: Inhibition ratio (%) Day 14 of dosing.
Setting [10] is: read-out: Inhibition ratio (%) day 7 after drug withdrawal.

In the case of `COc1nc(N)nc2c1ncn2COCCOP(=O)(N[C@H](C)C(=O)OC(C)C)Oc1ccc2c(c1)OCO2` (some centres unmarked) [Compound I29], the IC50 in the series on HBV (setting [4]) is 0.14 µM. The molecule further yielded a CC50 in the series “in vitro” of more than 200 µM. The ALT stood at 307 U/L in series [1] and 301 U/L in series [2]. Besides, the figures for the AST in series [1] and in series [2] were 561 U/L and 510 U/L, respectively. The inhibition in vivo at 10 mg/kg is 90.8% with DHBV (setting [5]) and 17.1% in the series on DHBV (setting [6]).
Regarding `C=C1[C@H](CO[P@@](=O)(N[C@@H](C)C(=O)OC(C)C)Oc2ccc3c(c2)OCO3)[C@@H](O)C[C@@H]1n1cnc2c(=O)[nH]c(N)nc21` [Compound I38-b], the IC50 in the series on HBV (setting [4]) came out at 0.09 µM. This molecule also came in with a CC50 in the series “in vitro” of more than 200 µM. The values for the ALT in series [1] and in series [2] were 162 U/L and 217 U/L, respectively. For the same molecule, the AST is recorded as 387 U/L in series [1] and 493 U/L in series [2]. Further, the results for the inhibition in vivo at 0.5 mg/kg in the series with DHBV (setting [5]) and with DHBV (setting [6]) were 96.4% and 63.4%, respectively.
In the case of `COC(=O)C(C)NP(=O)(OCC1OC(n2ccc(N)nc2=O)CS1)Oc1ccccc1` (centres unmarked) [Cf1109, reference compound], the IC50 in the series with HBV (setting [4]) was 0.13 µM. Further, in “in vitro”, it took 82 µM to reach half-maximal cytotoxicity (CC50). For the same molecule, the values for the ALT in series [1] and in series [2] were 2048 U/L and 191 U/L, respectively. In addition, the AST in series [1] turned out to be 3351 U/L; in series [2], 140 U/L. In addition, the inhibition in vivo at 20 mg/kg was 68.8% with DHBV (serum DHBV DNA, 20 mg/kg intragastric once a day for 14 days, read-out: Inhibition ratio (%) Day 14 of dosing) and 5.38% in the series with DHBV (serum DHBV DNA, 20 mg/kg intragastric once a day for 14 days, read-out: Inhibition ratio (%) day 7 after drug withdrawal).
Turning to `Nc1ncnc2c1ncn2CCOCP(=O)(Oc1ccc2c(c1)OCO2)Oc1ccc2c(c1)OCO2` [Compound I2, 9-[[[bis-((benzo[1,3]dioxolan-5-yl)-oxyl)-phosphonyl]-methoxyl]-ethyl]-adenine], 0.47 µM corresponded to half-maximal inhibition in the series with HBV (setting [7]) (IC50). This molecule also returned a CC50 at 3 days in “in vitro” of more than 200 µM. For the same molecule, the figures for the ALT in series [1] and in series [2] were 435 U/L and 514 U/L, respectively. The values for the AST in series [1] and in series [2] were 764 U/L and 560 U/L, respectively.
For the molecule `CC(C)OC(=O)[C@H](C)N[P@](=O)(CO[C@H](C)Cn1cnc2c(N)ncnc21)Oc1ccc2c(c1)OCO2` [Compound I21-b], the concentration for half-maximal inhibition (IC50) in the series with HBV (Hep G 2.2.15 cells, HBV DNA in supernate at day 10 post-dosing, read-out: IC50) amounted to 0.012 µM. The Cliver/Cblood in series [3] (1 h post-dosing) was found to be 9.15; in series [3] (6 h post-dosing) it was 14.37. Moreover, the ALT in series [1] was 251 U/L; in series [2], 514 U/L. The AST stood at 152 U/L in series [1] and 268 U/L in series [2]. The “Inhibition ratio (%) Day 14 of dosing” value in the series with DHBV (setting [8]) came to 82.3%. Besides, in the series on DHBV (setting [8]), the “Inhibition ratio (%) day 7 after drug withdrawal” value stood at 39.2%.
In the case of `C=C1[C@H](CO[P@](=O)(N[C@@H](C)C(=O)OC(C)C)Oc2ccc3c(c2)OCO3)[C@@H](O)C[C@@H]1n1cnc2c(=O)[nH]c(N)nc21` [Compound I38-a], the half-inhibitory concentration (IC50) with HBV (setting [4]) was determined as 0.001 µM. Also, half-maximal cytotoxicity in the series “in vitro” (CC50) was put at 139 µM. Moreover, the ALT in series [1] was 410 U/L; in series [2] it was 177 U/L. The results for the AST in series [1] and in series [2] were 289 U/L and 275 U/L, respectively. Moreover, the results for the inhibition in vivo at 0.5 mg/kg in the series on DHBV (setting [5]) and in the series with DHBV (setting [6]) were 76.2% and 31.4%, respectively.
`C=C1[C@H](CO[P@@](=O)(N[C@@H](C)C(=O)OC(C)C)Oc2ccccc2)[C@@H](O)C[C@@H]1n1cnc2c(=O)[nH]c(N)nc21` [i-5, 2-amino-1,9-dihydro-9-[(1S,3R,4S)-4-hydroxyl-3-((S)—((S)-1-isopropoxycarbonylethylamino-phenoxy-phosphoryl)-oxymethyl)-2-methylenecyclopentyl]-6H-purin-6-one, reference compound]: the IC50 in the series with HBV (setting [4]) came out at 0.012 µM. The CC50 in the series “in vitro” turned out to be 193 µM. Also, the ALT stood at 551 U/L in series [1] and 1512 U/L in series [2]. The figures for the AST in series [1] and in series [2] were 641 U/L and 1646 U/L, respectively. The inhibition in vivo at 1 mg/kg was determined as 88.9% with DHBV (setting [5]) and 15.7% with DHBV (setting [6]).
`Nc1ncnc2c1ncn2CCOCP(=O)(Oc1cccc2c1OCO2)Oc1cccc2c1OCO2` [Compound I1, 9-[[[bis-((benzo[1,3]dioxolan-4-yl)-oxyl)-phosphonyl]-methoxyl]-ethyl]-adenine] yielded an IC50 in the series on HBV (setting [7]) of 8.05 µM. Moreover, the cytotoxic concentration (CC50) at 3 days in the series “in vitro” was more than 200 µM. For the same molecule, in series [1], the ALT is on record as 328 U/L and the AST was 433 U/L. For the same molecule, in series [2], the ALT is recorded as 679 U/L and the AST came out at 796 U/L.
As for `Nc1ncnc2c1ncn2CCOCP(=O)(Oc1cccc2ccccc12)Oc1cccc2ccccc12` [i-2, 9-[[bis-(naphthoxy)-phosphonyl-methoxyl]-ethyl]-adenine, reference compound], the IC50 with HBV (setting [7]) is 1.92 µM. In the series “in vitro”, this molecule yielded a CC50 at 3 days of 152 µM. Moreover, the ALT worked out at 3482 U/L in series [1] and 1374 U/L in series [2]. Further, the AST is reported as 3660 U/L in series [1] and 1812 U/L in series [2].
Regarding `Nc1nc2c(ncn2COCCOP(=O)(Oc2ccc3c(c2)OCO3)Oc2ccc3c(c2)OCO3)c(=O)[nH]1` [Compound I12, 9-[[[bis-((benzo[1,3]dioxolan-5-yl)-oxyl)-phosphoryloxyl]-ethoxyl]-methyl]-guanine], the IC50 with HBV (setting [7]) worked out at 0.24 µM. Also, in “in vitro”, the CC50 at 3 days is more than 200 µM.
As for `Nc1nc2c(ncn2COCCO)c(=O)[nH]1` [Acyclovir, acyclovir, reference compound], the IC50 in the series with HBV (setting [4]) stood at 25.6 µM. Moreover, the values for the inhibition in vivo at 20 mg/kg in the series on DHBV (setting [9]) and with DHBV (setting [10]) were 12.5% and 2.64%, respectively.
Turning to `COc1ccc(Sc2nc(N)nc3c2ncn3CCOCP(=O)(N[C@H](C)C(=O)OC(C)C)Oc2ccc3c(c2)OCO3)cc1` (some centres unmarked) [Compound I26, 2-amino-6-(4-methoxylphenyl)thio-9-[[[(((benzo[1,3]dioxolan-5-yl)-oxyl)-1-isopropyloxylcarbonylethylamino)-phosphonyl]-methoxyl]-ethyl]-purine], in the series with HBV (setting [7]), the IC50 is 0.039 µM. This molecule gave a CC50 at 3 days in the series “in vitro” of more than 200 µM. The results for the ALT in series [1] and in series [2] were 521 U/L and 212 U/L, respectively. Moreover, the AST in series [1] amounted to 363 U/L; in series [2], 586 U/L. The values for the inhibition in vivo at 25 mg/kg in the series with DHBV (setting [9]) and in the series on DHBV (setting [10]) were 93.5% and 11.5%, respectively.
With `Nc1ccn([C@@H]2CS[C@H](CO)O2)c(=O)n1` [Lamivudine, lamivudine, reference compound], the half-inhibitory concentration (IC50) in the series on HBV (setting [4]) is 0.075 µM. The results for the inhibition in vivo at 20 mg/kg in the series with DHBV (setting [9]) and in the series with DHBV (setting [10]) were 76.1% and 2.35%, respectively.
